Data taken from US7576215B2, “Quinolines and pharmaceutical compositions thereof” (Wyeth, priority 2003, dated 2009).

First: O=C(Nc1ccccc1)c1cnc2c(C(F)(F)F)cccc2c1-c1ccccc1 [Example 72, N, 4-DIPHENYL-8-(TRIFLUOROMETHYL)QUINOLINE-3-CARBOXAMIDE]
Second: Cc1cccc(NC(=O)c2cnc3c(C(F)(F)F)cccc3c2-c2ccccc2)c1 [Example 370, N-(3-METHYLPHENYL)-4-PHENYL-8-(TRIFLUOROMETHYL)QUINOLINE-3-CARBOXAMIDE]
The melting point of the first is higher: 207 to 208 °C for the first, 182 to 184 °C for the second.

Compared with COc1cc(C(=O)O)ccc1COc1cccc(-c2c(C(=O)c3ccccc3)cnc3c(C(F)(F)F)cccc23)c1 [Example 515, 4-({3-[3-BENZOYL-8-(TRIFLUOROMETHYL)QUINOLIN-4-YL]PHENOXY}METHYL)-3METHOXY-BENZOIC ACID], COC(=O)c1ccc(COc2cccc(-c3c(C(=O)c4ccccc4)cnc4c(C(F)(F)F)cccc34)c2)c(OC)c1 [Example 507, METHYL-4-({3-[3-BENZOYL-8-(TRIFLUOROMETHYL)QUINOLIN-4-YL]PHENOXY}METHYL)-3-METHOXYBENZOATE] is lower in melting point: 100 to 110 °C for the first, 60 to 63 °C for the second.

First: COC(=O)/C=C/c1ccc(COc2cc(-c3c(-c4ccccc4)cnc4c(C(F)(F)F)cccc34)ccc2Cl)cc1
Second: O=C(O)/C=C/c1ccc(COc2cc(-c3c(-c4ccccc4)cnc4c(C(F)(F)F)cccc34)ccc2Cl)cc1
The melting point of the first is lower: 149 to 151 °C for the first, 257 °C for the second.

Compared with Oc1ccc(F)c(-c2c(-c3ccccc3)cnc3c(C(F)(F)F)cccc23)c1 [Example 412, 4-FLUORO-3-[3-PHENYL-8-(TRIFLUOROMETHYL)QUINOLIN-4-YL]PHENOL], Oc1cccc(-c2c(-c3ccccc3F)cnc3c(C(F)(F)F)cccc23)c1 [Example 458, 3-[3-(2-FLUOROPHENYL)-8-(TRIFLUOROMETHYL)QUINOLIN-4-YL]PHENOL] is higher in melting point: 85 °C for the first, 186 to 187 °C for the second.

First: CCc1cccc(N(C)C(=O)c2cnc3c(C(F)(F)F)cccc3c2-c2ccccc2)c1 [Example 386, N-(3-ETHYLPHENYL)-N-METHYL-4-PHENYL-8-(TRIFLUOROMETHYL)QUINOLINE-3-CARBOXAMIDE]
Second: Cc1cccc(N(C)C(=O)c2cnc3c(C(F)(F)F)cccc3c2-c2ccccc2)c1 [Example 379, N-METHYL-N-(3-METHYLPHENYL)-4-PHENYL-8-(TRIFLUOROMETHYL)QUINOLINE-3-CARBOXAMIDE]
The melting point of the first is lower: 144 to 146 °C for the first, 174 to 176 °C for the second.

Compared with Cc1ccccc1N(C)C(=O)c1cnc2c(C(F)(F)F)cccc2c1-c1ccccc1 [Example 381, N-METHYL-N-(2-METHYLPHENYL)-4-PHENYL-8-(TRIFLUOROMETHYL)QUINOLINE-3-CARBOXAMIDE], COc1ccccc1N(C)C(=O)c1cnc2c(C(F)(F)F)cccc2c1-c1ccccc1 [Example 387, N-(2-METHOXYPHENYL)-N-METHYL-4-PHENYL-8-(TRIFLUOROMETHYL)QUINOLINE-3-CARBOXAMIDE] is lower in melting point: 144 °C for the first, 138 °C for the second.

First: Cc1nc2c(C(F)(F)F)cccc2c(-c2ccccc2)c1C(=O)c1ccccc1 [Example 477, [2-METHYL-4-PHENYL-8-(TRIFLUOROMETHYL)QUINOLIN-3-YL](PHENYL)METHANONE]
Second: CN(C(=O)c1cnc2c(C(F)(F)F)cccc2c1-c1ccccc1)c1ccccc1 [Example 378, N-METHYL-N,4-DIPHENYL-8-(TRIFLUOROMETHYL)QUINOLINE-3-CARBOXAMIDE]
The melting point of the first is lower: 175 to 177 °C for the first, 188 to 190 °C for the second.

First: O=C(Nc1cccc(F)c1)c1cnc2c(C(F)(F)F)cccc2c1-c1ccccc1 [Example 377, N-(3-FLUOROPHENYL)-4-PHENYL-8-(TRIFLUOROMETHYL)QUINOLINE-3-CARBOXAMIDE]
Second: O=C(Nc1cccc(Cl)c1)c1cnc2c(C(F)(F)F)cccc2c1-c1ccccc1 [Example 373, N-(3-CHLOROPHENYL)-4-PHENYL-8-(TRIFLUOROMETHYL)QUINOLINE-3-CARBOXAMIDE]
The melting point of the first is higher: 171 to 173 °C for the first, 159 to 161 °C for the second.

First: O=C(Nc1cccc(C(F)(F)F)c1)c1cnc2c(C(F)(F)F)cccc2c1-c1ccccc1 [Example 371, 4-PHENYL-8-(TRIFLUOROMETHYL)-N-[3-(TRIFLUOROMETHYL)PHENYL]QUINOLINE-3-CARBOXAMIDE]
Second: CN(C(=O)c1cnc2c(C(F)(F)F)cccc2c1-c1ccccc1)c1cccc(C(F)(F)F)c1 [Example 382, N-METHYL-4-PHENYL-8-(TRIFLUOROMETHYL)-N-[3-(TRIFLUOROMETHYL)PHENYL]QUINOLINE-3-CARBOXAMIDE]
The melting point of the first is lower: 155 to 157 °C for the first, 163 to 165 °C for the second.

First: O=C(Nc1ccc(F)cc1)c1cnc2c(C(F)(F)F)cccc2c1-c1ccccc1 [Example 376, N-(4-FLUOROPHENYL)-4-PHENYL-8-(TRIFLUOROMETHYL)QUINOLINE-3-CARBOXAMIDE]
Second: O=C(Nc1ccc(Cl)cc1)c1cnc2c(C(F)(F)F)cccc2c1-c1ccccc1 [Example 372, N-(4-CHLOROPHENYL)-4-PHENYL-8-(TRIFLUOROMETHYL)QUINOLINE-3-CARBOXAMIDE]
The melting point of the first is higher: 157 to 159 °C for the first, 153 to 155 °C for the second.

First: Oc1cccc(-c2c(-c3ccccc3)cnc3c(C(F)(F)F)cccc23)c1 [Example 391, 3-[3-PHENYL-8-(TRIFLUOROMETHYL)QUINOLIN-4-YL]PHENOL]
Second: Nc1cccc(-c2c(-c3ccccc3)cnc3c(C(F)(F)F)cccc23)c1 [Example 395, {3-[3-PHENYL-8-(TRIFLUOROMETHYL)QUINOLIN-4-YL]PHENYL}AMINE]
The melting point of the first is lower: 123 °C for the first, 163 to 165 °C for the second.

Compared with CN(C(=O)c1cnc2c(C(F)(F)F)cccc2c1-c1ccccc1)c1cccc(Cl)c1 [Example 384, N-(3-CHLOROPHENYL)-N-METHYL-4-PHENYL-8-(TRIFLUOROMETHYL)QUINOLINE-3-CARBOXAMIDE], CN(C(=O)c1cnc2c(C(F)(F)F)cccc2c1-c1ccccc1)c1cccc(F)c1 [Example 389, N-(3-FLUOROPHENYL)-N-METHYL-4-PHENYL-8-(TRIFLUOROMETHYL)QUINOLINE-3-CARBOXAMIDE] is lower in melting point: 211 to 213 °C for the first, 200 to 202 °C for the second.

Compared with Cc1ccccc1-c1cnc2c(C(F)(F)F)cccc2c1-c1cccc(NC(=O)Nc2ccccc2F)c1 [Example 573, N-(2-FLUOROPHENYL)-N′-{3-[3-(2-METHYLPHENYL)-8-(TRIFLUOROMETHYL)QUINOLIN-4-YL]PHENYL}UREA], Cc1ccccc1-c1cnc2c(C(F)(F)F)cccc2c1-c1cccc(NC(=O)Nc2ccccc2Cl)c1 is higher in melting point: 218 to 220 °C for the first, 224 to 226 °C for the second.

Compared with O=C(Nc1cccc(-c2c(-c3ccccc3)cnc3c(C(F)(F)F)cccc23)c1)Nc1ccccc1Cl [Example 76, N-(2-CHLOROPHENYL)-N′-{3-[3-PHENYL-8-(TRIFLUOROMETHYL)QUINOLIN-4-YL]PHENYL}UREA], O=C(Nc1ccccc1)Nc1cccc(-c2c(-c3ccccc3)cnc3c(C(F)(F)F)cccc23)c1 [Example 75, N-PHENYL-N′-{3-[3-PHENYL-8-(TRIFLUOROMETHYL)QUINOLIN-4-YL]PHENYL}UREA] is higher in melting point: 192 to 195 °C for the first, 202 to 205 °C for the second.

Compared with O=C(O)c1ccc(COc2cccc(-c3c(-c4ccccc4)cnc4c(C(F)(F)F)cccc34)c2)cc1 [Example 512, 4-({3-[3-PHENYL-8-(TRIFLUOROMETHYL)QUINOLIN-4-YL]PHENOXY}METHYL)BENZOIC ACID], O=C(O)Cc1ccc(COc2cccc(-c3c(-c4ccccc4)cnc4c(C(F)(F)F)cccc34)c2)cc1 [Example 398, [4-({3-[3-PHENYL-8-(TRIFLUOROMETHYL)QUINOLIN-4-YL]PHENOXY}METHYL)PHENYL]ACETIC ACID] is higher in melting point: 108 to 112 °C for the first, 122 °C for the second.

Compared with FC(F)(F)c1cccc2c(-c3ccccc3)c(Oc3ccccc3)cnc12 [Example 407, 3-PHENOXY-4-PHENYL-8-(TRIFLUOROMETHYL)QUINOLINE], FC(F)(F)c1cccc2c(-c3ccccc3)c(-c3ccccc3)cnc12 [Example 390, 3,4-DIPHENYL-8-(TRIFLUOROMETHYL)QUINOLINE] is higher in melting point: 122 °C for the first, 138 to 140 °C for the second.

First: FC(F)(F)c1cccc2c(-c3ccccc3)c(Sc3ccccc3)cnc12 [Example 411, 4-PHENYL-3-(PHENYLTHIO)-8-(TRIFLUOROMETHYL)QUINOLINE]
Second: O=S(=O)(c1ccccc1)c1cnc2c(C(F)(F)F)cccc2c1-c1ccccc1
The melting point of the first is lower: 139 to 141 °C for the first, 149 to 151 °C for the second.

First: Cc1ccc(N(C)C(=O)c2cnc3c(C(F)(F)F)cccc3c2-c2ccccc2)cc1 [Example 380, N-METHYL-N-(4-METHYLPHENYL)-4-PHENYL-8-(TRIFLUOROMETHYL)QUINOLINE-3-CARBOXAMIDE]
Second: CN(C(=O)c1cnc2c(C(F)(F)F)cccc2c1-c1ccccc1)c1ccc(Cl)cc1 [Example 383, N-(4-CHLOROPHENYL)-N-METHYL-4-PHENYL-8-(TRIFLUOROMETHYL)QUINOLINE-3-CARBOXAMIDE]
The melting point of the first is lower: 143 to 145 °C for the first, 177 to 179 °C for the second.

First: Cc1ccccc1-c1cnc2c(C(F)(F)F)cccc2c1-c1cccc(NC(=O)Nc2ccccc2)c1
Second: Cc1ccccc1-c1cnc2c(C(F)(F)F)cccc2c1-c1cccc(N)c1
The melting point of the first is higher: 192 to 195 °C for the first, 148 to 151 °C for the second.

Going from COC(=O)/C=C/c1ccc(COc2cccc(-c3c(-c4ccccc4)cnc4c(C(F)(F)F)cccc34)c2)cc1 to OCCc1ccc(COc2cccc(-c3c(-c4ccccc4)cnc4c(C(F)(F)F)cccc34)c2)cc1, the melting point falls from 91 °C to 50 °C.

First: O=C(Nc1ccccc1Cl)c1cnc2c(C(F)(F)F)cccc2c1-c1ccccc1 [Example 374, N-(2-CHLOROPHENYL)-4-PHENYL-8-(TRIFLUOROMETHYL)QUINOLINE-3-CARBOXAMIDE]
Second: CN(C(=O)c1cnc2c(C(F)(F)F)cccc2c1-c1ccccc1)c1ccc(F)cc1 [Example 388, N-(4-FLUOROPHENYL)-N-METHYL-4-PHENYL-8-(TRIFLUOROMETHYL)QUINOLINE-3-CARBOXAMIDE]
The melting point of the first is higher: 173 to 175 °C for the first, 138 to 140 °C for the second.

First: COc1cc(-c2c(-c3ccccc3)cnc3c(C(F)(F)F)cccc23)ccc1Cl [Example 393, 4-(4-CHLORO-3-METHOXYPHENYL)-3-PHENYL-8-(TRIFLUOROMETHYL)QUINOLINE]
Second: Oc1cc(-c2c(-c3ccccc3)cnc3c(C(F)(F)F)cccc23)ccc1Cl [Example 392, 2-CHLORO-5-[3-PHENYL-8-(TRIFLUOROMETHYL)QUINOLIN-4-YL]PHENOL]
The melting point of the first is lower: 172 to 174 °C for the first, 252 °C for the second.

Molecule CCc1ccc(N(C)C(=O)c2cnc3c(C(F)(F)F)cccc3c2-c2ccccc2)cc1 [Example 385, N-(4-ETHYLPHENYL)-N-METHYL-4-PHENYL-8-(TRIFLUOROMETHYL)QUINOLINE-3-CARBOXAMIDE] has a melting point of 136 to 138 °C.
